We go through 14 molecules from ChEMBL document CHEMBL1126382, “Synthesis and anti-HIV activity of pyrrolo-[1,2-d]-(1,4)-benzodiazepin-6-ones” (Bioorg Med Chem Lett, 1992).

For assay [1], the system named is MT2. As to the kind of experiment: Inhibition concentration required to protect 90% of cells(MT-2) from HIV induced death was determined. Format: functional. Conditions: Homo sapiens.
Assay [2] deals with MT2. As to the kind of experiment: Inhibition concentration required to protect 50% of cells(MT-2) from HIV induced death was determined. The class given is functional. The following applies: Homo sapiens, read-out: TC50 (the source's name).
Assay [3] deals with MT2. As to the kind of experiment: Inhibition concentration required to protect 90% of cells(MT-2) from HIV-1(3b) induced death was determined. The class given is functional. The following applies: Homo sapiens.
The subject of assay [4] is Human immunodeficiency virus 1. As to the kind of experiment: (§1) Inhibitory concentration against HIV-1 was determined. Format: functional.
Assay [5] deals with MT2. The assay is described as follows: Inhibition concentration required to protect 50% of cells(MT-2) from HIV-1(3b) induced death was determined. The class given is functional. Conditions: Homo sapiens, read-out: TC50 (the source's name).
For assay [6], the system named is MT2. As to the kind of experiment: Inhibition concentration required to protect 50% of cells(MT-2) from HIV-1(rod) induced death was determined. Format: functional, cell-based. Conditions: Homo sapiens.
In assay [7] the test system is MT2. As to the kind of experiment: Inhibition concentration required to protect 90% of cells(MT-2) from HIV-1(rf) induced death was determined. The following applies: Homo sapiens. Format: functional.
For assay [8], the system named is Human immunodeficiency virus 1. The assay is described as §1. The class given is functional, organism-based.

Converted amounts (≈) assume the structure as drawn.

Usually IC90 stands for the concentration needed for an effect of 90%. Low readings indicate greater potency, high ones weaker potency. What is called IC50 is the midpoint of a concentration-inhibition curve. Lower therefore signals greater potency in that assay.

Regarding `O=C1Nc2ccccc2-c2cccn2[C@H]1Cc1ccc(O)cc1`, in the assay with MT2 [1], the 90% effect concentration (IC90) was > 23 µg/mL. The CC50 with MT2 [2] stood at 23 µg/mL (≈ 75.6 µM).

On to `CN1C(=O)[C@H](Cc2ccc(O)cc2)n2cccc2-c2ccccc21`, for which, in the assay with MT2 [1], the IC90 was > 5.2 µg/mL. Also, in the assay with MT2 [2], the CC50 came to 5.2 µg/mL (≈ 16.3 µM).

As to `O=C1[C@H](Cc2ccc(O)cc2)n2cccc2-c2ccccc2N1CCc1ccc(O)cc1`, the IC90 with MT2 [1] was determined as 0.8 µg/mL (≈ 1.88 µM). In the assay on MT2 [2], the CC50 is 10 µg/mL (≈ 23.6 µM).

For the molecule `O=C(C[C@H]1C(=O)Nc2ccccc2-c2cccn21)OCc1ccccc1`, the IC90 was > 0.3 µg/mL with MT2 [3], 800 nM in assay [4], 0.29 µg/mL (≈ 0.837 µM) with MT2 [1] and 0.29 µg/mL (≈ 0.837 µM) in the assay with MT2 [7]. The CC50 in the assay on MT2 [5] was > 10 µg/mL; in the assay with MT2 [2] it was 10 µg/mL (≈ 28.9 µM). The same molecule returned an IC50 in the assay with MT2 [6] of 3 µg/mL (≈ 8.66 µM).

With `O=C1Cn2cccc2-c2ccccc2N1`, the IC90 in the assay on MT2 [1] is > 50 µg/mL. Moreover, the CC50 with MT2 [2] is > 50 µg/mL.

For `O=C(O)C[C@H]1C(=O)Nc2ccccc2-c2cccn21`, in the assay with MT2 [1], the IC90 was > 50 µg/mL. Besides, in the assay with MT2 [2], the CC50 is > 50 µg/mL.

In the case of `O=C1Nc2ccccc2-c2cccn2[C@H]1Cc1ccccc1`, the IC90 with MT2 [1] was > 21 µg/mL. In addition, the CC50 in the assay with MT2 [2] stood at 21 µg/mL (≈ 72.8 µM).

In turn, `CC(C)=CCN1Cc2cccc3[nH]c(=S)n(c23)C[C@@H]1C` yielded an IC50 in assay [8] of 28 nM. This counts as double-digit nanomolar.

The molecule `O=C1c2ccccc2C(=O)N1CCCCCN1C(=O)[C@H](Cc2ccc(O)cc2)n2cccc2-c2ccccc21` yielded an IC90 in the assay with MT2 [1] of 2.6 µg/mL (≈ 5 µM). The CC50 in the assay with MT2 [2] is > 50 µg/mL.

As for `O=C1c2ccccc2C(=O)N1CCCCN1C(=O)[C@H](Cc2ccc(O)cc2)n2cccc2-c2ccccc21`, the IC90 in the assay with MT2 [1] is > 23 µg/mL. Moreover, the CC50 in the assay with MT2 [2] turned out to be 23 µg/mL (≈ 45.5 µM).

For the molecule `CC(C)=CCN1Cc2cc(Cl)cc3nc(S)n(c23)CC1C` (stereo not drawn) [TIBO], the IC90 came to 1.5 µg/mL (≈ 4.66 µM) in the assay with MT2 [3] and 0.15 µg/mL (≈ 0.466 µM) in the assay on MT2 [7]. In the assay with MT2 [5], the CC50 was found to be 55 µg/mL (≈ 171 µM). Besides, the 50% inhibitory concentration (IC50) in the assay with MT2 [6] was > 50 µg/mL.

In assay [8], `Cc1ccnc2c1NC(=O)c1cccnc1N2C1CC1` [NEVIRAPINE] gave a half-inhibitory concentration (IC50) of 40 nM.

As to `O=Cc1ccc2n1[C@@H](Cc1ccccc1)C(=O)Nc1ccccc1-2`, the 90% effect concentration (IC90) with MT2 [1] is > 2.5 µg/mL. In addition, in the assay on MT2 [2], the CC50 stood at 2.5 µg/mL (≈ 7.9 µM).

Regarding `O=Cc1ccc2n1CC(=O)Nc1ccccc1-2`, the IC90 in the assay on MT2 [1] is > 50 µg/mL. Also, the CC50 in the assay on MT2 [2] was > 50 µg/mL.
